Among the data in US20260365641A1, “Aromatic Acetylene Derivative, Preparation Method Therefor, And Use Thereof” (Zhejiang Hisun Pharmaceutical Co., Ltd., priority 2022, published 2026) are MIC and IC50 values, retold here.

pIC50: −log10 of the molar value. Values after ≈ are worked out from the molar mass of the structure shown.

One assay concerns K. pneumoniae ATCC51504. Put plainly: Antibacterial activity, minimum inhibitory concentration (MIC) in vitro, broth dilution. To be noted: Klebsiella pneumoniae, 5×10^5 cfu/mL, 35 °C, 18-24 hours. The format is cell-based. The protocol:
(§1) The minimum inhibitory concentration (MIC) in vitro was determined according to CLSI's guidelines, and a minimal broth dilution method was used.
(§2) The test process was briefly described as follows: the tested compound was dissolved in DMSO to prepare a storage solution of […], and then prepared into 11 two-fold-diluted 100× high-concentration working liquids (a final concentration of the system was 64 μg/mL to 0.06 μg/mL) by DMSO. Stains (K. pneumoniae ATCC13883, K. pneumoniae ATCC51504 and E. coli ATCC 25922) frozen at −80 °C with glycerin were inoculated to a solid agar culture medium, placed into an incubator for culturing for 18-24 hours at 35 °C to finish the preparation work of the strains. A proper amount of solid plate culture was collected, re-suspended in normal saline, and uniformly mixed. The turbidity of the bacterial suspension was adjusted to a proper turbidity by a turbidity meter, containing about 1×10^8 cfu/mL of bacteria. Then, the turbidity-regulated bacterial suspension was diluted with a test culture medium (type: CAMHIIB, purchased from BD company) to a bacterial concentration of 5×10^5 cfu/mL, thus finishing the preparation of an inoculation solution. 198 μL of the inoculation solution was inoculated into a 96-well plate, and added with 2 μL 100× high concentration working liquid of the compound, then the 96-well plate was placed at 35 °C for culturing for 18-24 hours.
On the technique in general: Dilution methods test growth across graded concentrations, often in twofold steps.

For the next assay, the system named is E. coli ATCC 25922. Described as above. In kind it is cell-based. To be noted: Escherichia coli, ATCC25922, 5×10^5 cfu/mL, 35 °C, 18-24 hours. The protocol:
as §1, §2

For assay [1], the target named is T1, recombinant Pseudomonas aeruginosa LpxC (Pseudomonas aeruginosa, UniProt P47205).
T1 construct: purchased Signalway Antibody AP74647-2
T1 sequence (P47205 1-303): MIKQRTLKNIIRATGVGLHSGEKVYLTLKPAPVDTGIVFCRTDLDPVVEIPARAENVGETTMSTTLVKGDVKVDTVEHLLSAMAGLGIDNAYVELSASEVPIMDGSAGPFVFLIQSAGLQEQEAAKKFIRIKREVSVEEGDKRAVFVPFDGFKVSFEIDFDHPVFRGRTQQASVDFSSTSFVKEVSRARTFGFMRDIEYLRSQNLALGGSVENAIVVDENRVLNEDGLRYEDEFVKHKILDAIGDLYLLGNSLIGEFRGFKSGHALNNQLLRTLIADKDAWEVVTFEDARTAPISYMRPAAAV
In words: Inhibition of enzymatic activity of recombinant Pseudomonas aeruginosa LpxC in vitro. The format is biochemical. To be noted: 5 nM LpxC; substrate UDP-3-O—(R-3-hydroxydecanoyl)-GlcNAc; 25 °C, 120 minutes; fluorescamine readout. On the procedure:
The following method was used to determine degrees of inhibition of the compounds of the present invention on the enzymatic activity of recombinant Pseudomonas aeruginosa LpxC in vitro.
The test process was briefly described as follows: the tested compound was first dissolved in DMSO to prepare a 10 mM storage solution. The reaction was carried out in a 96-well microplate. Firstly, 20 μL of recombinant Pseudomonas aeruginosa LpxC (purchased from Signalway Antibody, article number AP74647-2) was added into the wells, and the final concentrations were 5 nM respectively. 5 μL of the compound to be tested was added, diluted in 4-fold, with 8 concentration points, and the concentration range was 0.61-10000 nM. 5 μL of LpxC substrate UDP-3-O—(R-3-hydroxydecanoyl)-GlcNAc (purchased from Biosynth Carbosynth, article number mu75071) was added, wherein a final concentration of the substrate was […], and the substrate was incubated at 25 °C for 120 minutes. Subsequently, 20 μL of 2.0 mg/mL fluorescamine (purchased from sigma aldrich, article number F9015, wherein a solvent was dimethylformamide/acetonitrile (1:1)) was added to the reaction system, mixed evenly and reacted for 10 minutes. Finally, 50 μL of 200 mM sodium phosphate buffer solution (pH 8.0) was added to stop the reaction, and a microplate reader (BMG) was used for reading. An excitation wavelength and an emission wavelength were 390 nm and 495 nm respectively. Compared with the fluorescence intensity ratio of a control group (0.1% DMSO), the percentage inhibition rates of the compounds at each concentration were calculated, and the IC50 values of the compounds were obtained by performing nonlinear regression analysis with logarithmic value of the compound concentration-inhibition rate by GraphPad Prism 5 software, which can be seen in Table 1.

The term MIC denotes the lowest concentration found to suppress growth. A word on the pIC50: it is the negative decadic logarithm of the IC50, by convention in mol/L.

Turning to `C[C@H](O)c1nccn1Cc1cc(-c2ccc(C#CC3=CCN(C(=O)CO)CC3)cc2)on1` [Example 63, (S)-2-hydroxy-1-(4-((4-(3-((2-(1-hydroxyethyl)-1H-imidazol-1-yl)methyl)isoxazol-5-yl)phenyl)ethynyl)-3,6-dihydropyridin-1(2H)-yl)ethan-1-one], the MIC against K. pneumoniae ATCC51504 and in the assay on E. coli ATCC 25922 was 0.5 µg/mL (≈ 1.16 µM) in each case. For the same molecule, in assay [1], the pIC50 was 7.63.
`C[C@H](O)c1nccn1Cc1cc(-c2ccc(C#CC3=CCN(C(=O)C4COCCO4)CC3)cc2)on1` (stereo partly drawn) [Example 64, (1,4-dioxan-2-yl)(4-((4-(3-((2-((S)-1-hydroxyethyl)-1H-imidazol-1-yl)methyl)isoxazol-5-yl)phenyl)ethynyl)-3,6-dihydropyridin-1(2H)-yl)methanone]: the MIC with K. pneumoniae ATCC51504 came out at 0.5 µg/mL (≈ 1.02 µM); in the assay with E. coli ATCC 25922, 1 µg/mL (≈ 2.05 µM). Also, the pIC50 in assay [1] was 7.72.
On to `C[C@H](O)c1nccn1Cc1cc(-c2ccc(C#CC3=CCN(C(=O)N4CCOCC4)CC3)cc2)on1` [Example 60, (S)-(4-((4-(3-((2-(1-hydroxyethyl)-1H-imidazol-1-yl)methyl)isoxazol-5-yl)phenyl)ethynyl)-3,6-dihydropyridin-1(2H)-yl)(morpholino)methanone], for which the MIC was 1 µg/mL (≈ 2.05 µM) in the assay with K. pneumoniae ATCC51504 and 2 µg/mL (≈ 4.1 µM) with E. coli ATCC 25922. In addition, the pIC50 in assay [1] was 7.60.
In the same order, the values of `C[C@H](O)c1nccn1Cc1cc(-c2ccc(C#CC3=CCN(C(=O)c4cnccn4)CC3)cc2)on1` [Example 38, (S)-(4-((4-(3-((2-(1-hydroxyethyl)-1H-imidazol-1-yl)methyl)isoxazol-5-yl)phenyl)ethynyl)-3,6-dihydropyridin-1(2H)-yl)(pyrazin-2-yl)methanone] are 0.5 µg/mL (≈ 1.04 µM), 0.25 µg/mL (≈ 0.52 µM) and 7.64.
For the molecule `C[C@H](O)c1nccn1Cc1cc(-c2ccc(C#CC3=CCN(C(=O)C4CCCCO4)CC3)cc2)on1` (stereo partly drawn) [Example 65, (4-((4-(3-((2-((S)-1-hydroxyethyl)-1H-imidazol-1-yl)methyl)isoxazol-5-yl)phenyl)ethynyl)-3,6-dihydropyridin-1(2H)-yl)(tetrahydro-2H-pyran-2-yl)methanone], the minimal inhibitory concentration (MIC) stood at 0.5 µg/mL (≈ 1.03 µM) with K. pneumoniae ATCC51504 and 2 µg/mL (≈ 4.11 µM) in the assay with E. coli ATCC 25922. Moreover, in assay [1], the pIC50 is 7.82.
Regarding `COCCC(=O)N1CC=C(C#Cc2ccc(-c3cc(Cn4ccnc4[C@H](C)O)no3)cc2)CC1` [Example 67, (S)-1-(4-((4-(3-((2-(1-hydroxyethyl)-1H-imidazol-1-yl)methyl)isoxazol-5-yl)phenyl)ethynyl)-3,6-dihydropyridin-1(2H)-yl)-3-methoxypropan-1-one], the MIC is 0.5 µg/mL (≈ 1.09 µM) against K. pneumoniae ATCC51504 and 1 µg/mL (≈ 2.17 µM) with E. coli ATCC 25922. In assay [1], the negative logarithm of the IC50 (pIC50) is 7.64.
For the molecule `COCC(=O)N1CC=C(C#Cc2ccc(-c3cc(Cn4ccnc4[C@H](C)O)no3)cc2)CC1` [Example 68, (S)-1-(4-((4-(3-((2-(1-hydroxyethyl)-1H-imidazol-1-yl)methyl)isoxazol-5-yl)phenyl)ethynyl)-3,6-dihydropyridin-1(2H)-yl)-2-methoxyethan-1-one], the MIC against K. pneumoniae ATCC51504 and with E. coli ATCC 25922 was 1 µg/mL (≈ 2.24 µM) each time. Besides, the pIC50 in assay [1] was 7.67.
For the molecule `C[C@H](O)c1nccn1Cc1cc(-c2ccc(C#CC3=CCN(CC(N)=O)CC3)cc2)on1` [Example 59, (S)-2-(4-((4-(3-((2-(1-hydroxyethyl)-1H-imidazol-1-yl)methyl)isoxazol-5-yl)phenyl)ethynyl)-3,6-dihydropyridin-1(2H)-yl)acetamide], the MIC against K. pneumoniae ATCC51504 amounted to 0.5 µg/mL (≈ 1.16 µM); against E. coli ATCC 25922, 2 µg/mL (≈ 4.64 µM). In assay [1], the pIC50 was 7.62.
With `C[C@H](O)c1nccn1Cc1cc(-c2ccc(C#CC3=CCN(C(=O)c4cccnc4)CC3)cc2)on1` [Example 45, (S)-(4-((4-(3-((2-(1-hydroxyethyl)-1H-imidazol-1-yl)methyl)isoxazol-5-yl)phenyl)ethynyl)-3,6-dihydropyridin-1(2H)-yl)(pyridin-3-yl)methanone], the MIC in the assay with K. pneumoniae ATCC51504 amounted to 0.5 µg/mL (≈ 1.04 µM); against E. coli ATCC 25922 it was 1 µg/mL (≈ 2.09 µM). The pIC50 in assay [1] was 7.91.
`C[C@H](O)c1nccn1Cc1cc(-c2ccc(C#CC3=CCN(C(=O)C4CCOCC4)CC3)cc2)on1` [Example 66, (S)-(4-((4-(3-((2-(1-hydroxyethyl)-1H-imidazol-1-yl)methyl)isoxazol-5-yl)phenyl)ethynyl)-3,6-dihydropyridin-1(2H)-yl)(tetrahydro-2H-pyran-4-yl)methanone]: the MIC came out at 1 µg/mL (≈ 2.06 µM) in the assay on K. pneumoniae ATCC51504 and 2 µg/mL (≈ 4.11 µM) in the assay on E. coli ATCC 25922. Further, in assay [1], the pIC50 was 7.73.
Regarding `C[C@H](O)c1nccn1Cc1cc(-c2ccc(C#CC3=CCN(C(=O)C4[C@H]5CCC[C@@H]45)CC3)cc2)on1` (stereo partly drawn) [Example 35, ((1R,5S)-bicyclo[3.1.0]hexan-6-yl)(4-((4-(3-((2-((S)-1-hydroxyethyl)-1H-imidazol-1-yl)methyl)isoxazol-5-yl)phenyl)ethynyl)-3,6-dihydropyridin-1(2H)-yl)methanone], the MIC with K. pneumoniae ATCC51504 and in the assay on E. coli ATCC 25922 was 2 µg/mL (≈ 4.14 µM) each time.
Consider `C[C@H](O)c1nccn1Cc1cc(-c2ccc(C#CC3CC4(C3)CN(C(=O)c3ncn[nH]3)C4)cc2)on1` [Example 55, (S)-(6-((4-(3-((2-(1-hydroxyethyl)-1H-imidazol-1-yl)methyl)isoxazol-5-yl)phenyl)ethynyl)-2-azaspiro[3.3]heptan-2-yl)(1H-1,2,4-triazol-5-yl)methanone], for which the MIC in the assay on K. pneumoniae ATCC51504 and in the assay with E. coli ATCC 25922 was 2 µg/mL (≈ 4.14 µM) each time. For the same molecule, the pIC50 in assay [1] was 7.83.
For `CC(=O)N1CC=C(C#Cc2ccc(-c3cc(Cn4ccnc4[C@H](C)O)no3)cc2)CC1` [Example 62, (S)-1-(4-((4-(3-((2-(1-hydroxyethyl)-1H-imidazol-1-yl)methyl)isoxazol-5-yl)phenyl)ethynyl)-3,6-dihydropyridin-1(2H)-yl)ethan-1-one], the MIC with K. pneumoniae ATCC51504 and with E. coli ATCC 25922 was 0.5 µg/mL (≈ 1.2 µM) in each case. Further, in assay [1], the pIC50 is 7.74.
Take `C[C@H](O)c1nccn1Cc1cc(-c2ccc(C#CC3=CCN(C(N)=O)CC3)cc2)on1` [Example 58, (S)-4-((4-(3-((2-(1-hydroxyethyl)-1H-imidazol-1-yl)methyl)isoxazol-5-yl)phenyl)ethynyl)-3,6-dihydropyridine-1(2H)-carboxamide]: the minimum inhibitory concentration (MIC) in the assay with K. pneumoniae ATCC51504 and against E. coli ATCC 25922 was 1 µg/mL (≈ 2.4 µM) throughout. For the same molecule, in assay [1], the pIC50 is 7.72.
As to `C[C@H](O)c1nccn1Cc1cc(-c2ccc(C#CC3=CCN(CCC#N)CC3)cc2)on1` [Example 44, (S)-3-(4-((4-(3-((2-(1-hydroxyethyl)-1H-imidazol-1-yl)methyl)isoxazol-5-yl)phenyl)ethynyl)-3,6-dihydropyridin-1(2H)-yl)propanenitrile], the minimum inhibitory concentration (MIC) is 0.5 µg/mL (≈ 1.17 µM) against K. pneumoniae ATCC51504 and 1 µg/mL (≈ 2.34 µM) in the assay on E. coli ATCC 25922. Besides, the pIC50 in assay [1] is 7.60.
`C[C@H](O)c1nccn1Cc1cc(-c2ccc(C#CC3=CCN(C(=O)C4COCCN4)CC3)cc2)on1` (stereo partly drawn) [Example 42, (4-((4-(3-((2-((S)-1-hydroxyethyl)-1H-imidazol-1-yl)methyl)isoxazol-5-yl)phenyl)ethynyl)-3,6-dihydropyridin-1(2H)-yl)(morpholin-3-yl)methanone]: the MIC came out at 2 µg/mL (≈ 4.1 µM) against K. pneumoniae ATCC51504 and 4 µg/mL (≈ 8.2 µM) with E. coli ATCC 25922.
